Measurements: paper PMC8760230, “Translational Development of a Zr-89-Labeled Inhibitor of Prostate-specific Membrane Antigen for PET Imaging in Prostate Cancer” (Molecular Imaging and Biology, 2021)
Several values for one entry are separate records, joined by “and”; a condition that tells them apart may be missing. Identical values can stand only once. Entries after “also recorded” stand apart in the source; their conditions may differ. Like-named read-outs stand apart in the source and are kept apart here.

Legend:
[1] = test system: LNCaP tumor xenograft; experiment: Small-animal PET in mice bearing an LNCaP tumor xenograft, with and without blocking by 2-PMPA
[2] = test system: prostate cancer relapse; experiment: First-in-human PET/CT scan in a patient with biochemical recurrence of prostate cancer; conditions: for SUVmax left prostate lobe / SUVmax right prostate lobe: 93 MBq
Method: The patient had given their written informed consent for PET imaging and the scientific evaluation of their data. All procedures were performed in accordance with the Institutional Review Board and the regulations of the regional authorities in Cologne. The kidney dose was estimated on the basis of two PET scans. The following assumptions were made for the estimation: Between time 0 (injection) and the first measuring point, the time-activity-curve follows a constant progression. All measuring points were integrated numerically using trapezoidal approximation. From the last measuring point to infinity, a mono-exponential function was fitted and integrated. As the effective half-life could not be accurately determined from two measurement points, the physical half-life of Zr-89 was used instead.

[3] = test system: LNCaP cells; experiment: Cellular uptake (specific cell binding) in LNCaP cells; assay type: cell-based; conditions: n=3
Method: (§1) The cell binding determined in these experiments is the sum of specific and nonspecific cell binding. To determine the values for nonspecific cell binding and internalization, all experiments were additionally performed in the presence of 2-PMPA.
(§2) The plates were incubated for 1 h; after which, 0.75 pmol of the radiotracer to be examined was added to 1 ml of fresh medium. The cells were incubated for 30 min, 1, 2, 3, and 5 h. At each time point, the supernatant was removed and the cells washed with 1 ml of PBS. To dissociate the receptor-bound radioligand, the cells were washed twice with 1 ml of a 0.1 M glycine buffer solution at pH 2.8 for 5 min. The 0.1 M glycine–HCl buffer dissociated all the surface-bound complexes. The cells were then washed with 1 ml of PBS, and the internalized fraction was determined by solubilizing the cells with 1 ml of 1 M NaOH and incubating them for 10 min at room temperature. The radioactivity collected from the culture medium, 0.1 M glycine (surface-bound), and 1 M NaOH (internalized fraction) was measured in a gamma counter and decay-corrected. Cell binding was calculated from the surface-bound (0.1 M glycine) and the internalized fraction (1 M NaOH). The internalized fraction was expressed as a percentage of cell binding (internalization to cell-bound radioactivity ratio). All cell uptake experiments were run in triplicate.

[4] = biological target: T1, PSMA (Homo sapiens, UniProt Q04609); experiment: Equilibrium dissociation constant Kd / Bmax, saturation binding on PSMA-positive LNCaP cells; conditions: Scatchard plots
T1 construct: host or cells: LNCaP cells
Method: The equilibrium dissociation constant describing the interaction of the radiolabeled ligands with the PSMA binding sites was determined in PSMA-positive LNCaP cell lines (Cell Line Service, Eppelheim, Germany). LNCaP cells were seeded at a density of 10^6 cells/well on a 6-well plate (Corning, ME, USA) and incubated under 5% CO2 at 37 °C for 48 h with medium (minimum essential medium Eagle supplemented with 2 mM L-glutamine, 0.1 mM non-essential amino acids (NEAA), 1.0 mM sodium pyruvate, 10% fetal bovine serum, 100 U/ml penicillin, and 100 µg/ml streptomycin) (Lonza, Verviers, Belgium) in a humidified incubator (Thermo Heracell 150 CO2-Incubator, MA, USA). To determine the nonspecific binding, the medium was removed from selected wells, and 1 ml of a solution of 0.1 mM of 2-(phosphonomethyl)-pentanedioic acid (2-PMPA) in fresh medium was added. […] The plates were then incubated under 5% CO2, at 37 °C for 1 h. After that, the medium was removed and the cells incubated under the same incubation conditions for 3 h with different concentrations (0.25 nM, 2.5 nM, 5 nM, 10 nM, 25 nM, 50 nM, and 75 nM) of the radiotracer under investigation in 1 ml fresh medium.
After 3 h, the cells were washed three times with 1 ml PBS, and the cells were finally lysed by adding 1 ml of 1 M NaOH and incubating them for 10 min at room temperature. All samples were measured with a gamma counter (Nuklear Medizintechnik Dresden Isomed 100, Dresden, Germany) and were decay-corrected. The equilibrium dissociation constant (Kd) and the maximum density of receptors (Bmax) were calculated by non-linear regression using GraphPad Prism 8.0.2 (GraphPad Software, San Diego, USA).

[5] = test system: LNCaP cells; experiment: Internalization in LNCaP cells; assay type: cell-based; conditions: n=3
Method: as §1, §2

[6] = test system: LNCaP tumor xenografts; conditions: for Tumor/blood ratio / Tumor/kidneys ratio / Tumor/liver ratio / Tumor/muscle ratio: LNCaP xenograft mice; for Biodistribution Blood / Biodistribution Bone / Biodistribution Heart / Biodistribution Intestine / Biodistribution Kidneys / Biodistribution LNCAP-tumor / Biodistribution Liver / Biodistribution Lung / Biodistribution Muscle / Biodistribution Prostate / Biodistribution Spleen / Biodistribution Thyroid: i.v. 30 pmol, n=5

T1 sequence (Q04609 whole entry): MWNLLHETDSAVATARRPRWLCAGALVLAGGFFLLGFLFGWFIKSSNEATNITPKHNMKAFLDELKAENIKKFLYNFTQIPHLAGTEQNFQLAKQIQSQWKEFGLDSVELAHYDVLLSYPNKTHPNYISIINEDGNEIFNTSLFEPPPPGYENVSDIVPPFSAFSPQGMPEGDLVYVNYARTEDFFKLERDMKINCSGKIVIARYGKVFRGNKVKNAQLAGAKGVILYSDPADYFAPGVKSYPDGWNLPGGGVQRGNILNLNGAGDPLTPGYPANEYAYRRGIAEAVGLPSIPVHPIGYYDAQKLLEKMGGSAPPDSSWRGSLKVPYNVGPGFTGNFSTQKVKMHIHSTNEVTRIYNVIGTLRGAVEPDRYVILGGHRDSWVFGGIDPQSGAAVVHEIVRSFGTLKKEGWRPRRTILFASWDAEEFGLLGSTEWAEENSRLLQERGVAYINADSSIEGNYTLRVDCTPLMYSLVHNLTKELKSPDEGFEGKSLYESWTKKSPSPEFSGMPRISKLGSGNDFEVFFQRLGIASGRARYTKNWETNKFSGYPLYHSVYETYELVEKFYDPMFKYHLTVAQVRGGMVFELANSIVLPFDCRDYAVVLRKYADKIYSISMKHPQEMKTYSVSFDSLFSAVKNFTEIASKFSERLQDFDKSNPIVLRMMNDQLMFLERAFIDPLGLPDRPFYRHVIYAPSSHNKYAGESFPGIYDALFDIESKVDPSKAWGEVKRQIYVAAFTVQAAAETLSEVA

Compound: CC(=O)N1CCCCCNC(=O)CCC(=O)N2CCCCCNC(=O)CCC(=O)N(CCCCCNC(=O)CCC(=O)NCC3CCC(C(=O)NC(Cc4ccc5ccccc5c4)C(=O)NCCCCC(NC(=O)NC(CCC(=O)O)C(=O)O)C(=O)O)CC3)[O][89Zr+]([O]1)[O]2 (centres unmarked) [[^89Zr]Zr-PSMA-DFO, [^89Zr]Zr-N-sucDf-AMCHA-2Nal-EuK]
- Visibility of LNCaP tumor xenograft in PET ([1]; 48 h p.i., 10 MBq): still clearly visible; also recorded: remained clearly visible
- Radioactivity in the bladder ([1]; mice, 48 h after injection): no detectable radioactivity
- Share of renal radioactivity due to specific binding ([1]; mouse, blocking experiment with 2-PMPA): approximately two-thirds
- Overall effective dose (ICRP 60) [2]: 0.11 mSv/MBq
- SUVmax left prostate lobe ([2]; 48 h p.i.): 9.47
- SUVmax right prostate lobe ([2]; 48 h p.i.): 13.25
- SUVmax left prostate lobe ([2]; 72 h p.i.): 7.14
- SUVmax right prostate lobe ([2]; 72 h p.i.): 13.05
- Kidney dose ([2]; estimated from two PET scans): 2.8 mGy/MBq
- Specific binding in LNCaP cells as percentage of total activity ([3]; 0.5 h): 29.1±2.1%
- Specific binding in LNCaP cells as percentage of total activity ([3]; 1 h): 38.5±2.3%
- Specific binding in LNCaP cells as percentage of total activity ([3]; 2 h): 46.5±1.3%
- Specific binding in LNCaP cells as percentage of total activity ([3]; 3 h): 48.8±1.0%
- Specific binding in LNCaP cells as percentage of total activity ([3]; 5 h): 49.4±1.3%
- Bmax (maximum achievable concentration on 10^6 tumor cells) [4]: 1428 ± 42 fmol/10^6 cells
- Period over which the radioligand was found stable (37 °C, PBS and human serum, TLC, HPLC in PBS, listed as Zr-89-radioligand): 7 days
- Radiochemical purity remaining on storage (storage in aqueous solution for 7 days): > 99%
- Specific internalized activity as percentage of specific cell-bound activity ([5]; 0.5 h): 32.7±4.1%
- Specific internalized activity as percentage of specific cell-bound activity ([5]; 1 h): 39.8±0.4%
- Specific internalized activity as percentage of specific cell-bound activity ([5]; 2 h): 48.0±3.4%
- Specific internalized activity as percentage of specific cell-bound activity ([5]; 3 h): 50.0±0.6%
- Specific internalized activity as percentage of specific cell-bound activity ([5]; 5 h): 61.7±3.4%
- Tumor/blood ratio ([6]; 2 h p.i.): 183 ± 42
- Tumor/kidneys ratio ([6]; 2 h p.i.): 0.31 ± 0.06
- Tumor/liver ratio ([6]; 2 h p.i.): 27.5 ± 3.2
- Tumor/muscle ratio ([6]; 2 h p.i.): 534 ± 62
- Biodistribution Blood ([6]; 2 h p.i.): 0.14 ± 0.02 %ID/g
- Biodistribution Bone ([6]; 2 h p.i.): 0.15 ± 0.04 %ID/g
- Biodistribution Heart ([6]; 2 h p.i.): 0.11 ± 0.05 %ID/g
- Biodistribution Intestine ([6]; 2 h p.i.): 0.65 ± 0.15 %ID/g
- Biodistribution Kidneys ([6]; 2 h p.i.): 86.7 ± 18.7 %ID/g
- Biodistribution LNCAP-tumor ([6]; 2 h p.i.): 26.3 ± 5.3 %ID/g
- Biodistribution Liver ([6]; 2 h p.i.): 0.95 ± 0.15 %ID/g
- Biodistribution Lung ([6]; 2 h p.i.): 0.5 ± 0.04 %ID/g
- Biodistribution Muscle ([6]; 2 h p.i.): 0.05 ± 0.02 %ID/g
- Biodistribution Prostate ([6]; 2 h p.i.): 0.15 ± 0.04 %ID/g
- Biodistribution Spleen ([6]; 2 h p.i.): 0.49 ± 0.07 %ID/g
- Biodistribution Thyroid ([6]; 2 h p.i.): 0.18 ± 0.03 %ID/g
- Tumor/blood ratio ([6]; 4 h p.i.): 180 ± 61
- Tumor/kidneys ratio ([6]; 4 h p.i.): 0.55 ± 0.01
- Tumor/liver ratio ([6]; 4 h p.i.): 29.6 ± 5.1
- Tumor/muscle ratio ([6]; 4 h p.i.): 297 ± 62
- Biodistribution Blood ([6]; 4 h p.i.): 0.13 ± 0.04 %ID/g
- Biodistribution Bone ([6]; 4 h p.i.): 0.13 ± 0.03 %ID/g
- Biodistribution Heart ([6]; 4 h p.i.): 0.12 ± 0.03 %ID/g
- Biodistribution Intestine ([6]; 4 h p.i.): 0.54 ± 0.10 %ID/g
- Biodistribution Kidneys ([6]; 4 h p.i.): 41.3 ± 2.37 %ID/g
- Biodistribution LNCAP-tumor ([6]; 4 h p.i.): 22.8 ± 1.5 %ID/g
- Biodistribution Liver ([6]; 4 h p.i.): 0.79 ± 0.17 %ID/g
- Biodistribution Lung ([6]; 4 h p.i.): 0.12 ± 0.03 %ID/g
- Biodistribution Muscle ([6]; 4 h p.i.): 0.08 ± 0.02 %ID/g
- Biodistribution Prostate ([6]; 4 h p.i.): 1.12 ± 0.16 %ID/g
- Biodistribution Spleen ([6]; 4 h p.i.): 0.61 ± 0.09 %ID/g
- Biodistribution Thyroid ([6]; 4 h p.i.): 0.13 ± 0.02 %ID/g
- Tumor/blood ratio ([6]; 24 h p.i.): 309 ± 89
- Tumor/kidneys ratio ([6]; 24 h p.i.): 1.0 ± 0.3 and 1.02 ± 0.28
- Tumor/liver ratio ([6]; 24 h p.i.): 40.0 ± 1.1
- Tumor/muscle ratio ([6]; 24 h p.i.): 450 ± 38
- Biodistribution Blood ([6]; 24 h p.i.): 0.05 ± 0.01 %ID/g
- Biodistribution Bone ([6]; 24 h p.i.): 0.18 ± 0.02 %ID/g
- Biodistribution Heart ([6]; 24 h p.i.): 0.09 ± 0.02 %ID/g
- Biodistribution Intestine ([6]; 24 h p.i.): 0.25 ± 0.08 %ID/g
- Biodistribution Kidneys ([6]; 24 h p.i.): 15.4 ± 4.1 %ID/g
- Biodistribution LNCAP-tumor ([6]; 24 h p.i.): 14.9 ± 1.2 %ID/g
- Biodistribution Liver ([6]; 24 h p.i.): 0.37 ± 0.03 %ID/g
- Biodistribution Lung ([6]; 24 h p.i.): 0.04 ± 0.01 %ID/g
- Biodistribution Muscle ([6]; 24 h p.i.): 0.03 ± 0.01 %ID/g
- Biodistribution Prostate ([6]; 24 h p.i.): 0.50 ± 0.01 %ID/g
- Biodistribution Spleen ([6]; 24 h p.i.): 0.36 ± 0.08 %ID/g
- Biodistribution Thyroid ([6]; 24 h p.i.): 0.05 ± 0.01 %ID/g
- In vivo stability (no time-dependent increase in Zr-89 accumulation in bone) ([6]; mice, 24 h or 48 h p.i., biokinetics and small-animal PET): convincing in vivo stability
